{
  "source": "PubChem BioAssay AID1963971",
  "about": "(Molecular Pharmacology Branch, DTP, NCI, 2024);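 note: spheroids exposed to compounds for seven days before read-out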",
  "test_system": "953936-095-R-J2-PDC spheroids with HUVEC/MSC, viability",
  "assay": "Anticancer human tumor 953936-095-R-J2-PDC patient-derived cervical squamous cell carcinoma cell line growth inhibition [PI3K]",
  "conditions": "for IC50: curve of first compound; for viability, T/C: stronger effect = lower value",
  "how_it_was_run": "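High-throughput combination screen: PI3K inhibitors crossed with targeted small molecules on complex spheroids of tumor cells, HUVEC and MSCs at 37 degrees C, 5% CO2. Top concentration was at or near clinical Cmax (otherwise 10 microM), with half-log decrements.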",
  "key": {"[1]": {"conditions": "second compound 0.0316 µM, first compound 0.0316 µM"}, "[2]": {"conditions": "second compound 0.0316 µM, first compound 0.1 µM"}, "[3]": {"conditions": "second compound 0.0316 µM, first compound 0.316 µM"}, "[4]": {"conditions": "second compound 0.0316 µM, first compound 1 µM"}, "[5]": {"conditions": "second compound 0.0316 µM, first compound 3.16 µM"}, "[6]": {"conditions": "second compound 0.0316 µM, first compound 10 µM"}, "[7]": {"conditions": "second compound 0.1 µM, first compound 0.0316 µM"}, "[8]": {"conditions": "second compound 0.1 µM, first compound 0.1 µM"}, "[9]": {"conditions": "second compound 0.1 µM, first compound 0.316 µM"}, "[10]": {"conditions": "second compound 0.1 µM, first compound 1 µM"}, "[11]": {"conditions": "second compound 0.1 µM, first compound 3.16 µM"}, "[12]": {"conditions": "second compound 0.1 µM, first compound 10 µM"}, "[13]": {"conditions": "second compound 0.316 µM, first compound 0.0316 µM"}, "[14]": {"conditions": "second compound 0.316 µM, first compound 0.1 µM"}, "[15]": {"conditions": "second compound 0.316 µM, first compound 0.316 µM"}, "[16]": {"conditions": "second compound 0.316 µM, first compound 1 µM"}, "[17]": {"conditions": "second compound 0.316 µM, first compound 3.16 µM"}, "[18]": {"conditions": "second compound 0.316 µM, first compound 10 µM"}, "[19]": {"conditions": "second compound 1 µM, first compound 0.0316 µM"}, "[20]": {"conditions": "second compound 1 µM, first compound 0.1 µM"}, "[21]": {"conditions": "second compound 1 µM, first compound 0.316 µM"}, "[22]": {"conditions": "second compound 1 µM, first compound 1 µM"}, "[23]": {"conditions": "second compound 1 µM, first compound 3.16 µM"}, "[24]": {"conditions": "second compound 1 µM, first compound 10 µM"}, "[25]": {"conditions": "second compound 3.16 µM, first compound 0.0316 µM"}, "[26]": {"conditions": "second compound 3.16 µM, first compound 0.1 µM"}, "[27]": {"conditions": "second compound 3.16 µM, first compound 0.316 µM"}, "[28]": {"conditions": "second compound 3.16 µM, first compound 1 µM"}, "[29]": {"conditions": "second compound 3.16 µM, first compound 3.16 µM"}, "[30]": {"conditions": "second compound 3.16 µM, first compound 10 µM"}, "[31]": {"conditions": "second compound 10 µM, first compound 0.0316 µM"}, "[32]": {"conditions": "second compound 10 µM, first compound 0.1 µM"}, "[33]": {"conditions": "second compound 10 µM, first compound 0.316 µM"}, "[34]": {"conditions": "second compound 10 µM, first compound 1 µM"}, "[35]": {"conditions": "second compound 10 µM, first compound 3.16 µM"}, "[36]": {"conditions": "second compound 10 µM, first compound 10 µM"}},
  "data": [
    {"smiles": "C=CC(=O)N1CCN(c2nc(=O)n(-c3c(C)ccnc3C(C)C)c3nc(-c4c(O)cccc4F)c(F)cc23)C(C)C1", "note": "(centres undefined) + Cc1nc(NC(=O)N2CCCC2C(N)=O)sc1-c1ccnc(C(C)(C)C(F)(F)F)c1", "values": [
      {"measurement": "IC50", "setting": "second compound 0.0316 µM", "result": "> 10", "unit": "µM"},
      {"measurement": "IC50", "setting": "second compound 0.1 µM", "result": "> 10", "unit": "µM"},
      {"measurement": "IC50", "setting": "second compound 0.316 µM", "result": "> 10", "unit": "µM"},
      {"measurement": "IC50", "setting": "second compound 1 µM", "result": "< 0.0316", "unit": "µM"},
      {"measurement": "IC50", "setting": "second compound 3.16 µM", "result": "< 0.0316", "unit": "µM"},
      {"measurement": "IC50", "setting": "second compound 10 µM", "result": "< 0.0316", "unit": "µM"},
      {"measurement": "viability, T/C", "setting": "[1]", "result": 85.5, "unit": "%"},
      {"measurement": "viability, T/C", "setting": "[2]", "result": 89.2, "unit": "%"},
      {"measurement": "viability, T/C", "setting": "[3]", "result": 95.8, "unit": "%"},
      {"measurement": "viability, T/C", "setting": "[4]", "result": 109, "unit": "%"},
      {"measurement": "viability, T/C", "setting": "[5]", "result": 110, "unit": "%"},
      {"measurement": "viability, T/C", "setting": "[6]", "result": 105, "unit": "%"},
      {"measurement": "viability, T/C", "setting": "[7]", "result": 81.9, "unit": "%"},
      {"measurement": "viability, T/C", "setting": "[8]", "result": 83.7, "unit": "%"},
      {"measurement": "viability, T/C", "setting": "[9]", "result": 90.2, "unit": "%"},
      {"measurement": "viability, T/C", "setting": "[10]", "result": 98.6, "unit": "%"},
      {"measurement": "viability, T/C", "setting": "[11]", "result": 123, "unit": "%"},
      {"measurement": "viability, T/C", "setting": "[12]", "result": 117, "unit": "%"},
      {"measurement": "viability, T/C", "setting": "[13]", "result": 64.5, "unit": "%"},
      {"measurement": "viability, T/C", "setting": "[14]", "result": 65.7, "unit": "%"},
      {"measurement": "viability, T/C", "setting": "[15]", "result": 68.8, "unit": "%"},
      {"measurement": "viability, T/C", "setting": "[16]", "result": 86, "unit": "%"},
      {"measurement": "viability, T/C", "setting": "[17]", "result": 84.4, "unit": "%"},
      {"measurement": "viability, T/C", "setting": "[18]", "result": 73.7, "unit": "%"},
      {"measurement": "viability, T/C", "setting": "[19]", "result": 46, "unit": "%"},
      {"measurement": "viability, T/C", "setting": "[20]", "result": 52.1, "unit": "%"},
      {"measurement": "viability, T/C", "setting": "[21]", "result": 47.7, "unit": "%"},
      {"measurement": "viability, T/C", "setting": "[22]", "result": 51.5, "unit": "%"},
      {"measurement": "viability, T/C", "setting": "[23]", "result": 55.9, "unit": "%"},
      {"measurement": "viability, T/C", "setting": "[24]", "result": 48, "unit": "%"},
      {"measurement": "viability, T/C", "setting": "[25]", "result": 27, "unit": "%"},
      {"measurement": "viability, T/C", "setting": "[26]", "result": 27.8, "unit": "%"},
      {"measurement": "viability, T/C", "setting": "[27]", "result": 27, "unit": "%"},
      {"measurement": "viability, T/C", "setting": "[28]", "result": 32.8, "unit": "%"},
      {"measurement": "viability, T/C", "setting": "[29]", "result": 33.4, "unit": "%"},
      {"measurement": "viability, T/C", "setting": "[30]", "result": 26.1, "unit": "%"},
      {"measurement": "viability, T/C", "setting": "[31]", "result": 11.5, "unit": "%"},
      {"measurement": "viability, T/C", "setting": "[32]", "result": 11.8, "unit": "%"},
      {"measurement": "viability, T/C", "setting": "[33]", "result": 11.9, "unit": "%"},
      {"measurement": "viability, T/C", "setting": "[34]", "result": 11.9, "unit": "%"},
      {"measurement": "viability, T/C", "setting": "[35]", "result": 10.8, "unit": "%"},
      {"measurement": "viability, T/C", "setting": "[36]", "result": 7.49, "unit": "%"}
    ]},
    {"smiles": "CC(Cn1ccc(-c2ccc(C#N)c(Cl)c2)n1)NC(=O)c1cc(C(C)O)[nH]n1", "note": "(centres undefined) + Cc1nc(NC(=O)N2CCCC2C(N)=O)sc1-c1ccnc(C(C)(C)C(F)(F)F)c1", "values": [
      {"measurement": "IC50", "setting": "second compound 0.0316 µM", "result": "> 10", "unit": "µM"},
      {"measurement": "IC50", "setting": "second compound 0.1 µM", "result": "> 10", "unit": "µM"},
      {"measurement": "IC50", "setting": "second compound 0.316 µM", "result": "> 10", "unit": "µM"},
      {"measurement": "IC50", "setting": "second compound 1 µM", "result": "< 0.0316", "unit": "µM"},
      {"measurement": "IC50", "setting": "second compound 3.16 µM", "result": "< 0.0316", "unit": "µM"},
      {"measurement": "IC50", "setting": "second compound 10 µM", "result": "< 0.0316", "unit": "µM"},
      {"measurement": "viability, T/C", "setting": "[1]", "result": 83.7, "unit": "%"},
      {"measurement": "viability, T/C", "setting": "[2]", "result": 95.2, "unit": "%"},
      {"measurement": "viability, T/C", "setting": "[3]", "result": 86.4, "unit": "%"},
      {"measurement": "viability, T/C", "setting": "[4]", "result": 96.9, "unit": "%"},
      {"measurement": "viability, T/C", "setting": "[5]", "result": 89.8, "unit": "%"},
      {"measurement": "viability, T/C", "setting": "[6]", "result": 107, "unit": "%"},
      {"measurement": "viability, T/C", "setting": "[7]", "result": 84.8, "unit": "%"},
      {"measurement": "viability, T/C", "setting": "[8]", "result": 77.9, "unit": "%"},
      {"measurement": "viability, T/C", "setting": "[9]", "result": 78.2, "unit": "%"},
      {"measurement": "viability, T/C", "setting": "[10]", "result": 81.2, "unit": "%"},
      {"measurement": "viability, T/C", "setting": "[11]", "result": 82.4, "unit": "%"},
      {"measurement": "viability, T/C", "setting": "[12]", "result": 79.5, "unit": "%"},
      {"measurement": "viability, T/C", "setting": "[13]", "result": 69.4, "unit": "%"},
      {"measurement": "viability, T/C", "setting": "[14]", "result": 65.3, "unit": "%"},
      {"measurement": "viability, T/C", "setting": "[15]", "result": 74.1, "unit": "%"},
      {"measurement": "viability, T/C", "setting": "[16]", "result": 61, "unit": "%"},
      {"measurement": "viability, T/C", "setting": "[17]", "result": 61.7, "unit": "%"},
      {"measurement": "viability, T/C", "setting": "[18]", "result": 66.5, "unit": "%"},
      {"measurement": "viability, T/C", "setting": "[19]", "result": 43.9, "unit": "%"},
      {"measurement": "viability, T/C", "setting": "[20]", "result": 41.7, "unit": "%"},
      {"measurement": "viability, T/C", "setting": "[21]", "result": 43.5, "unit": "%"},
      {"measurement": "viability, T/C", "setting": "[22]", "result": 45.9, "unit": "%"},
      {"measurement": "viability, T/C", "setting": "[23]", "result": 44.1, "unit": "%"},
      {"measurement": "viability, T/C", "setting": "[24]", "result": 44.6, "unit": "%"},
      {"measurement": "viability, T/C", "setting": "[25]", "result": 24.7, "unit": "%"},
      {"measurement": "viability, T/C", "setting": "[26]", "result": 26.9, "unit": "%"},
      {"measurement": "viability, T/C", "setting": "[27]", "result": 27.6, "unit": "%"},
      {"measurement": "viability, T/C", "setting": "[28]", "result": 25.2, "unit": "%"},
      {"measurement": "viability, T/C", "setting": "[29]", "result": 26.9, "unit": "%"},
      {"measurement": "viability, T/C", "setting": "[30]", "result": 28.4, "unit": "%"},
      {"measurement": "viability, T/C", "setting": "[31]", "result": 10.3, "unit": "%"},
      {"measurement": "viability, T/C", "setting": "[32]", "result": 10.8, "unit": "%"},
      {"measurement": "viability, T/C", "setting": "[33]", "result": 10.9, "unit": "%"},
      {"measurement": "viability, T/C", "setting": "[34]", "result": 11.1, "unit": "%"},
      {"measurement": "viability, T/C", "setting": "[35]", "result": 10.8, "unit": "%"},
      {"measurement": "viability, T/C", "setting": "[36]", "result": 13, "unit": "%"}
    ]}
  ]
}
